Measurements taken from ChEMBL document CHEMBL1201862, “PubChem BioAssay data set” (2004).
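Results reflect a 48-hour exposure of cells in 96-well plates to compound at five concentrations. At the GI50, growth is halved.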 Calls of active or inactive are those of the source. No stated cut-off is given here; in the data, active = GI50 up to about 1.1 µM and inactive = higher.

Legend:
Assay in all cases: DTP human tumour cell line panel, 48 h
[1] = tested on: 786-0
[2] = tested on: A498
[3] = tested on: ACHN
[4] = tested on: CAKI-1
[5] = tested on: CCRF-CEM
[6] = tested on: COLO 205
[7] = tested on: DU-145
[8] = tested on: EKVX
[9] = tested on: HCC 2998
[10] = tested on: HCT-116
[11] = tested on: HCT-15
[12] = tested on: HL-60
[13] = tested on: HOP-62
[14] = tested on: HOP-92
[15] = tested on: HT-29
[16] = tested on: IGROV-1
[17] = tested on: K562
[18] = tested on: LOX IMVI
[19] = tested on: M14
[20] = tested on: MCF7
[21] = tested on: MDA-MB-231
[22] = tested on: MDA-MB-435
[23] = tested on: MDA-N
[24] = tested on: MOLT-4
[25] = tested on: Malme-3M
[26] = tested on: NCI-H23
[27] = tested on: NCI-H460
[28] = tested on: NCI-H522
[29] = tested on: NCI/ADR-RES
[30] = tested on: OVCAR-3
[31] = tested on: OVCAR-4
[32] = tested on: OVCAR-5
[33] = tested on: OVCAR-8
[34] = tested on: PC-3
[35] = tested on: RPMI-8226
[36] = tested on: SF-268
[37] = tested on: SF-295
[38] = tested on: SF-539
[39] = tested on: SK-MEL-28
[40] = tested on: SK-MEL-2
[41] = tested on: SN12C
[42] = tested on: SNB-19
[43] = tested on: SNB-75
[44] = tested on: SR
[45] = tested on: SW-620
[46] = tested on: T47D
[47] = tested on: TK-10
[48] = tested on: U-251
[49] = tested on: UACC-257
[50] = tested on: UACC-62
[51] = tested on: UO-31
[52] = tested on: A549
[53] = tested on: NCI-H226
[54] = tested on: RXF 393
[55] = tested on: SK-MEL-5
[56] = tested on: SK-OV-3

Measured: GI50

CCCCN(CCCC)CCC(O)c1cc(-c2ccc(C(F)(F)F)cc2)nc(-c2ccc(C(F)(F)F)cc2)c1 (stereo not drawn)
inactive: [1] > 100 µM | [2] > 100 µM | [3] > 100 µM | [4] > 100 µM | [5] > 100 µM | [6] > 100 µM | [7] > 100 µM | [8] > 100 µM | [9] > 100 µM | [10] > 100 µM | [12] > 100 µM | [13] > 100 µM | [14] > 100 µM | [15] > 100 µM | [16] > 100 µM | [17] > 100 µM | [18] > 100 µM | [19] > 100 µM | [20] > 100 µM | [21] > 100 µM | [22] > 100 µM | [23] > 100 µM | [24] > 100 µM | [25] > 100 µM | [26] > 100 µM | [27] > 100 µM | [28] > 100 µM | [29] > 100 µM | [30] > 100 µM | [31] > 100 µM | [32] > 100 µM | [33] > 100 µM | [34] > 100 µM | [35] > 100 µM | [36] > 100 µM | [37] > 100 µM | [38] > 100 µM | [39] > 100 µM | [40] > 100 µM | [41] > 100 µM | [42] > 100 µM | [43] > 100 µM | [44] > 100 µM | [45] > 100 µM | [46] > 100 µM | [47] > 100 µM | [48] > 100 µM | [49] > 100 µM | [50] > 100 µM | [51] > 100 µM
> 100 µM: [11]

O=C(/N=C1\SCCN1C(=O)C(C(F)(F)F)C(F)(F)F)C(C(F)(F)F)C(F)(F)F
inactive: [1] > 100 µM | [2] > 100 µM | [52] > 100 µM | [3] > 100 µM | [4] > 100 µM | [5] > 100 µM | [6] > 100 µM | [8] > 100 µM | [9] > 100 µM | [10] > 100 µM | [12] > 100 µM | [13] > 100 µM | [14] > 100 µM | [15] > 100 µM | [16] > 100 µM | [17] > 100 µM | [18] > 100 µM | [19] > 100 µM | [20] > 100 µM | [21] > 100 µM | [22] > 100 µM | [24] > 100 µM | [25] > 100 µM | [53] > 100 µM | [26] > 100 µM | [27] > 100 µM | [28] > 100 µM | [29] > 100 µM | [30] > 100 µM | [31] > 100 µM | [32] > 100 µM | [33] > 100 µM | [34] > 100 µM | [35] > 100 µM | [54] > 100 µM | [37] > 100 µM | [38] > 100 µM | [39] > 100 µM | [40] > 100 µM | [55] > 100 µM | [56] > 100 µM | [42] > 100 µM | [44] > 100 µM | [45] > 100 µM | [47] > 100 µM | [48] > 100 µM | [49] > 100 µM | [51] > 100 µM
> 100 µM: [11]

C=CCOC(=O)CCCCCCCCCCCCCCCOC(=O)C1=C(CCC[C@@H](C)O[Si](C)(C)C(C)(C)C)N=C(N)N2[C@H](CC3(CC/C=C\[C@H](CC)O[Si](C(C)C)(C(C)C)C(C)C)OCCO3)CC[C@@H]12
inactive: [2] > 100 µM | [3] > 100 µM | [7] > 100 µM | [9] 49.3 µM | [20] 31.9 µM | [21] > 100 µM | [53] > 100 µM | [31] > 100 µM | [39] > 100 µM | [40] > 100 µM | [56] > 100 µM | [41] > 100 µM | [42] > 100 µM | [43] 83.8 µM | [46] > 100 µM | [47] > 100 µM | [51] 63.5 µM
active: [17] < 0.01 µM
